Assay results from ChEMBL document CHEMBL4364275, “Jietacins, azoxy natural products, as novel NF-κB inhibitors: Discovery, synthesis, biological activity, and mode of action” (Eur J Med Chem, 2019).
≈ marks a conversion by molar mass, not a printed value. Calls of active or inactive are those of the source. The rule behind the calls is not given here.

How the values were obtained:
K562 [1] = experiment: Antiproliferative activity against human K562 cells assessed as reduction in cell viability at 10 ug/ml measured after 24 hrs by MTT assay relative to control; type: functional
ATN-1 = experiment: Antiproliferative activity against human ATN1 cells assessed as reduction in cell viability measured after 24 hrs by MTT assay; type: functional; settings: ATN-1, 24 h, read-out: ED50 (the source's name)
Homo sapiens [2] = species: Homo sapiens; experiment: Inhibition of NF-kappaB localization in nucleus of human L540 cells at 10 ug/ml measured after 5 to 24 hrs by DAPI staining immunofluorescence microscopy
Homo sapiens [3] = species: Homo sapiens; experiment: Inhibition of NF-kappaB localization in nucleus of human L540 cells at 5 ug/ml measured after 5 hrs by DAPI staining immunofluorescence microscopy
Homo sapiens [4] = species: Homo sapiens; experiment: Inhibition of NF-kappaB localization in nucleus of human L540 cells at 3 ug/ml measured after 5 hrs by DAPI staining immunofluorescence microscopy
Homo sapiens [5] = species: Homo sapiens; experiment: Inhibition of NF-kappaB localization in nucleus of human L540 cells at 0.7 ug/ml measured after 5 to 24 hrs by DAPI staining immunofluorescence microscopy
Homo sapiens [6] = species: Homo sapiens; experiment: Inhibition of TNF alpha stimulated NF-kappaB in human FL cells transfected with kappaB luciferase at 5 to 10 ug/ml incubated for 4 hrs followed by TNF alpha stimulation measured after 3 hrs by dual luciferase reporter gene assay; type: cell-based
Homo sapiens [7] = species: Homo sapiens; experiment: Inhibition of NF-kappaB localization in nucleus of human L540 cells at 1.5 ug/ml measured after 5 hrs by DAPI staining immunofluorescence microscopy
Homo sapiens [8] = species: Homo sapiens; experiment: Inhibition of TNF alpha stimulated NF-kappaB in human FL cells transfected with kappaB luciferase incubated for 2 hrs followed by TNF alpha stimulation measured after 3 hrs by dual luciferase reporter gene assay; type: cell-based
Homo sapiens [9] = species: Homo sapiens; experiment: Inhibition of NF-kappaB localization in nucleus of human L540 cells at 0.2 ug/ml measured after 5 hrs by DAPI staining immunofluorescence microscopy
[10] = Acute toxicity in rat; settings: in vivo
HeLa [11] = experiment: Inhibition of TNF alpha stimulated NF-kappaB in human HeLa cells transfected with GFP-fused RelA mutant and IKBalpha expressing plasmid incubated for 2 hrs followed by TNF alpha stimulation by immunofluorescence microscopy; type: cell-based
KM-H2 = experiment: Antiproliferative activity against human KM-H2 cells assessed as reduction in cell viability at 25 to 100 ng/ml measured after 24 to 48 hrs by MTT assay; type: functional, cell-based
[12] = target: Transcription factor p65 (Homo sapiens) (UniProt Q04206); experiment: Inhibition of NF-kappaB RelA association with importin alpha in human KM-H2 cells at 0.2 ug/ml after 6 hrs by immunoprecipitation method; type: cell-based
Homo sapiens [13] = species: Homo sapiens; experiment: Antiproliferative activity against human KMM1 cells assessed as reduction in cell viability at 25 to 100 ng/ml measured after 24 to 48 hrs by MTT assay; type: functional, cell-based
L-540 = experiment: Antiproliferative activity against human L540 cells assessed as reduction in cell viability at 25 to 100 ng/ml measured after 24 to 48 hrs by MTT assay; type: functional, cell-based
[14] = target: T1, Importin subunit alpha-4 (Homo sapiens) (UniProt O00505); experiment: Inhibition of importin alpha 3 in human KM-H2 cells at 0.2 ug/ml after 6 hrs by Western blot analysis (reference value: 1); type: cell-based
T1 sequence (whole entry): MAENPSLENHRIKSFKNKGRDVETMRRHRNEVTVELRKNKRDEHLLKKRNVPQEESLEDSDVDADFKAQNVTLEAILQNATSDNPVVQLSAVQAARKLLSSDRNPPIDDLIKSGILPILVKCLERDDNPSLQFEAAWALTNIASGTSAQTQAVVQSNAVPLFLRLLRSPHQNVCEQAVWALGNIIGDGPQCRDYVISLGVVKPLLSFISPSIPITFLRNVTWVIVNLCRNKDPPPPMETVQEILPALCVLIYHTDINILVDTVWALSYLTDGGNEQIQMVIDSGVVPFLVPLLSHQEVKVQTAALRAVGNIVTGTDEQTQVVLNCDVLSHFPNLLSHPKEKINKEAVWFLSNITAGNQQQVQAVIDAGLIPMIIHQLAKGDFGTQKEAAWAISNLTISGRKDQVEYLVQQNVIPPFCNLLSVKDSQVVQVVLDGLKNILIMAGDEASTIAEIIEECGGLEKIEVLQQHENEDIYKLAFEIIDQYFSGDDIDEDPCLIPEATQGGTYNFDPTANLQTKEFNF

K562 [15] = experiment: Antiproliferative activity against human K562 cells assessed as reduction in cell viability at 25 to 100 ng/ml measured after 24 to 48 hrs by MTT assay; type: functional, cell-based
HeLa [16] = experiment: Inhibition of TNF alpha stimulated NF-kappaB localization in nucleus of human HeLa cells transfected with GFP-fused RelA C38S and IKBalpha expressing plasmid incubated for 2 hrs followed by TNF alpha stimulation by immunofluorescence microscopy; type: cell-based
HeLa [17] = experiment: Antiproliferative activity against human HeLa cells assessed as reduction in cell viability at 25 to 100 ng/ml measured after 24 to 48 hrs by MTT assay; type: functional, cell-based
HeLa [18] = experiment: Inhibition of TNF alpha stimulated NF-kappaB localization in nucleus of human HeLa cells transfected with GFP-fused RelA and IKBalpha expressing plasmid incubated for 2 hrs followed by TNF alpha stimulation by immunofluorescence microscopy; type: cell-based
HeLa [19] = experiment: Inhibition of TNF alpha stimulated NF-kappaB in human HeLa cells transfected with GFP-fused p50 mutant and IKBalpha expressing plasmid incubated for 2 hrs followed by TNF alpha stimulation by immunofluorescence microscopy; type: cell-based
Homo sapiens [20] = species: Homo sapiens; experiment: Antiproliferative activity against human KOB cells assessed as reduction in cell viability at 25 to 100 ng/ml measured after 24 to 48 hrs by MTT assay; type: functional, cell-based
Homo sapiens [21] = species: Homo sapiens; experiment: Antiproliferative activity against human KK1 cells assessed as reduction in cell viability at 25 to 100 ng/ml measured after 24 to 48 hrs by MTT assay; type: functional, cell-based
U-266 = experiment: Antiproliferative activity against human U266 cells assessed as reduction in cell viability at 25 to 100 ng/ml measured after 24 to 48 hrs by MTT assay; type: functional, cell-based
Homo sapiens [22] = species: Homo sapiens; experiment: Inhibition of NF-kappaB localization in nucleus of human L540 cells at 6 ug/ml measured after 5 hrs by DAPI staining immunofluorescence microscopy

Transcription factor p65 (Homo sapiens), sequence (Q04206 whole entry): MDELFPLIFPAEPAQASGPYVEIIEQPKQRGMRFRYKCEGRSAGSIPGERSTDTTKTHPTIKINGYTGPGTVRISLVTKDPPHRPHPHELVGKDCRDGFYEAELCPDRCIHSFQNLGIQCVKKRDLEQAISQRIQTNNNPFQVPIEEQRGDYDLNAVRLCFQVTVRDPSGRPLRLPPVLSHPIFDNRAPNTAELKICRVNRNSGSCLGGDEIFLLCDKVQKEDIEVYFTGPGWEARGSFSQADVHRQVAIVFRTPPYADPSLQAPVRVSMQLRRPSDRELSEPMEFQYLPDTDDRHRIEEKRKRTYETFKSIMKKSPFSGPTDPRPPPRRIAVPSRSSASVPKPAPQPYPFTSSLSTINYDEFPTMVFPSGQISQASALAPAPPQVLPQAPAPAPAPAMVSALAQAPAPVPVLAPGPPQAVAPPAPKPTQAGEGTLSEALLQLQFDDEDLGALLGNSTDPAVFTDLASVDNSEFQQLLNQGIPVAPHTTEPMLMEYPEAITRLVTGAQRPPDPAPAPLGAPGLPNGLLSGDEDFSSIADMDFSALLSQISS

SMILES	Activity (K562 [1]) [%]	EC50 (ATN-1) [µg/mL]	further results
C=C/[N+]([O-])=N/CCCCCCCCn1ccnn1	<20	1.01 (≈ 4.02 µM)	
C=C/[N+]([O-])=N/CCCCCCCCn1cc(CCBr)nn1	<20	0.97 (≈ 2.71 µM)	
C=C/[N+]([O-])=N/CCCCCCCCn1cc([Si](C)(C)C)nn1	<20	0.68 (≈ 2.1 µM)	
C=CC(C)(C)[C@@]12C=C(OC)C(=O)N3/C(=C/c4c[nH]cn4)C(=O)N[C@]31N(OC)c1ccccc12			inhibition (Homo sapiens [2]): inactive
C=C/[N+]([O-])=N/CCCCCCCCn1cc(CC(C)C)nn1	<20	0.83 (≈ 2.7 µM)	
C=C/[N+]([O-])=N/CCc1ccccc1	<20	1.03 (≈ 5.84 µM)	inhibition (Homo sapiens [3]): Active
C=C/[N+]([O-])=N/CCCCCCCCO	<20	1.05 (≈ 5.24 µM)	
C=C/[N+]([O-])=N/CCCCCCCCn1nncc1CCC(C)C	<20	0.85 (≈ 2.64 µM)	
C=C/[N+]([O-])=N/CCCCCCCCn1cc(-c2cc3ccccc3c3ccccc23)nn1	<20	1.03 (≈ 2.41 µM)	
C=C/[N+]([O-])=N/CCCCCCCCn1cc(C(C)(C)O)nn1	<20	1.15 (≈ 3.72 µM)	
C=C/[N+]([O-])=N/CCCCCCCC(=O)CCCCC[C@H](C)CC	<20	1.49 (≈ 4.59 µM)	
C=C/[N+]([O-])=N/CCCCCCCCn1cc(C2CC2)nn1	<20	0.84 (≈ 2.88 µM)	inhibition (Homo sapiens [4]): Active
C=C/[N+]([O-])=N/CCCCCCCCn1cc(CCCCC#N)nn1	<20	0.97 (≈ 2.92 µM)	
C=C/[N+]([O-])=N/CCCCCCCCO[Si](C)(C)C(C)(C)C	<20	1.34 (≈ 4.26 µM)	
C=C/[N+]([O-])=N/CCCCCCCCn1cc(-c2ccc(N)cc2)nn1	<20	0.76 (≈ 2.22 µM)	
C=C/[N+]([O-])=N/CCCCCCCCn1cc(C2(O)CCCCC2)nn1	<20	1.31 (≈ 3.75 µM)	
CC1(C)CCC2=C(O1)c1ccccc1C(=O)C2=O			inhibition (Homo sapiens [5]): inactive

SMILES	Activity (K562 [1]) [%]	EC50 (ATN-1) [µg/mL]	further results
C=C/[N+]([O-])=N/CCCCCCCCn1cc(C(C)C)nn1	<20	0.84 (≈ 2.86 µM)	
C=C/[N+]([O-])=N/CCCCCCCC(=O)CCCCCC(C)C	<20	1.82 (≈ 5.86 µM)	inhibition (Homo sapiens [6]): Active; inhibition (Homo sapiens [2]): Active
C=C/[N+]([O-])=N/CCCCCCCCn1cc(C(C)(C)C)nn1	<20	0.69 (≈ 2.24 µM)	inhibition (Homo sapiens [4]): Active
C=C/[N+]([O-])=N/CCCCCCCC(=O)CCc1ccccc1	<20	1.09 (≈ 3.6 µM)	
C=C/[N+]([O-])=N/CCCCCCCC(=O)CCCCCC	<20	1.29 (≈ 4.57 µM)	
C=C/[N+]([O-])=N/CCCCCCCC(=O)CCCCC[C@@H](C)CC	<20	1.65 (≈ 5.08 µM)	
C=C/[N+]([O-])=N/CCCCCCCCn1cc(CN(Cc2cn(CCCCCCCC/N=[N+](\[O-])C=C)nn2)Cc2cn(CCCCCCCC/N=[N+](\[O-])C=C)nn2)nn1	<20	0.23 (≈ 0.285 µM)	inhibition (Homo sapiens [7]): Active
C=C/[N+]([O-])=N/CCCCCCCCOS(C)(=O)=O	<20	1.18 (≈ 4.24 µM)	
C#CC(=O)CCCCCCC/N=[N+](\[O-])C=C	<20	0.03 (≈ 0.135 µM)	inhibition (Homo sapiens [8]): Dose-dependent effect; inhibition (Homo sapiens [9]): Active; LD50 [10]: > 300 mg/kg; inhibition (HeLa [11]): inactive; Activity (KM-H2): Active; inhibition [12]: Active; inhibition (Homo sapiens [6]): Active; Activity (Homo sapiens [13]): Active; Activity (L-540): Active; fold change (FC) [14]: 0.53; Activity (K562 [15]): Active; inhibition (HeLa [16]): inactive; Activity (HeLa [17]): Active; inhibition (HeLa [18]): Active; inhibition (HeLa [19]): Active; Activity (Homo sapiens [20]): Active; Activity (Homo sapiens [21]): Active; Activity (U-266): Active
C=C/[N+]([O-])=N/CCCCCCCC(C)=O	<20	2.26 (≈ 10.6 µM)	
C=C/[N+]([O-])=N/CCCCCCCCn1cc(-c2cccnc2)nn1	<20	0.82 (≈ 2.5 µM)	
C=C/[N+]([O-])=N/CCCCCCCCn1cc(CCCC)nn1	<20	0.69 (≈ 2.24 µM)	
C=C/[N+]([O-])=N/CCCCCCCCn1cc(CCCCO)nn1	<20	0.71 (≈ 2.2 µM)	inhibition (Homo sapiens [4]): Active
C=C/[N+]([O-])=N/CCCCCCCC(=O)CCCCCCC(C)C	<20	1.17 (≈ 3.61 µM)	inhibition (Homo sapiens [22]): Active
C=C/[N+]([O-])=N/CCCCCCCCn1cc(CCC(C)C)nn1	<20	0.72 (≈ 2.24 µM)	
C=C/[N+]([O-])=N/CCCCCCCCn1cc(-c2ccccc2)nn1	<20	0.76 (≈ 2.32 µM)	
